The text below walks through data of patent US20050107447A1, “Novel lysophosphatidic acid receptor agonists and antagonists” (priority 2003, published 2005).

The target of one experiment is LPA2 (Homo sapiens, UniProt Q9HBW0). Kind of experiment: GTP[γ35S] binding, LPA2 transfected HEK293T cell membranes. In kind it is biochemical. More on the design: expressed in transfected cells; host or cells: HEK293T (transient, calcium phosphate). The following applies: for pEC50: agonist, GTP[γ35S] binding. Here is the method:
(§1) The appropriate receptor plasmid DNA (encoding mouse LPA1, human LPA2 or human LPA3) was mixed with equal amounts of expression plasmids (pcDNA3) encoding a mutated (C351F) rat Gi2a, cow β1, and γ2 proteins and these DNAs were used to transfect monolayers of HEK293T cells (where ‘T’ indicates expression of the SV-40 virus large T antigen) using the calcium phosphate precipitate method. After about 60 hours, cells were harvested, membranes were prepared, aliquoted and stored at −70° C. until use.
(§2) The GTP[35 γS] assay was performed as described by us previously. Membranes containing 5 ug of protein were incubated in 0.1 ml GTP-binding buffer (in mM: HEPES 50, NaCl 100, MgCl2 10, pH7.5) containing […], […], 0.1 nM GTP[35 γS] (1200 Ci/mmol), and indicated lipid(s) for 30 minutes at 30° C. Samples were analyzed for membrane-bound radionuclide using a Brandel Cell Harvester (Gaithersburg, Md.).
(§3) The X-intercept of the linear transformation is equal to the inverse log of the κ1.
(§4) Membranes prepared from these cells are used to measure GTPγ[^35S] binding as a function of test compound concentration. The resulting dose-response curves provide relative potency (EC50) and efficacy, (Emax) for the test compounds.
A general note: Binding of GTPγS marks nucleotide exchange on a G protein.

A further experiment concerns the target T1, LPA3 (Homo sapiens, UniProt Q9UBY5).
T1 sequence (Q9UBY5 1-353): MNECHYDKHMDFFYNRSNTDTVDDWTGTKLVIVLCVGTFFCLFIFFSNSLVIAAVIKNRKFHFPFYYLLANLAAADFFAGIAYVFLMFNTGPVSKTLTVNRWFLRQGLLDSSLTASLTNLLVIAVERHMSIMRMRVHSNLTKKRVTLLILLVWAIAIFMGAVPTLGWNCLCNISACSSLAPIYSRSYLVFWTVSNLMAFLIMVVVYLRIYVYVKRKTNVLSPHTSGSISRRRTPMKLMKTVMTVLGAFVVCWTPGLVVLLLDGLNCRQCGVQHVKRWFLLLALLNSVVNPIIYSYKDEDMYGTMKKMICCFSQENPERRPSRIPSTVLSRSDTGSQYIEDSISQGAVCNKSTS
Kind of experiment: GTP[γ35S] binding, LPA3 transfected HEK293T cell membranes. It is filed as biochemical. The following applies: for pEC50: agonist, GTP[γ35S] binding. More on the design: expressed in transfected cells; host or cells: HEK293T (transient, calcium phosphate). Here is the method:
as §1, §2, §3, §4

A further experiment concerns the target LPA1 (Mus musculus, UniProt P61793). Nature of the experiment: GTP[γ35S] binding, LPA1 transfected HEK293T (or RH7777) cell membranes. It is filed as biochemical. More on the design: expressed in transfected cells; host or cells: HEK293T (transient, with G protein plasmids); some results from RH7777 rat hepatoma membranes transfected with LPA1 DNA only. Particulars: for pEC50: agonist, GTP[γ35S] binding; for Potency at LPA1 relative to LPA: vs 1-oleoyl LPA. As for the experimental part:
as §1, §2, §3, §4

The next experiment has as its system LPA receptors. Kind of experiment: Whole cell assays of calcium mobilization or inhibition of cAMP accumulation (agonist activity). In kind it is cell-based. As for the experimental part:
Assays for cAMP accumulation were conducted on populations of 5×10^5 cells stimulated with […] in the presence of the phosphodiesterase inhibitor isomethylbutylxanthine (IBMX) for 15 minutes at 30° C. cAMP was measured by automated radioimmunoassay.
A FLIPR™ (Molecular Devices, Inc.) was used to measure intracellular calcium in A431 and HEK293T cells. A431 cells were seeded (−50,000 cells/well) in 96-well clear bottom black microplates (Corning Costar Corp., Cambridge, Mass.) and left overnight in CO2 incubator at 37° C. HEK293T cells were treated likewise, but seeded onto poly D-lysine coated microplates (Becton Dickinson, Franklin Lakes, N.J.). A431 cells were dye-loaded with 4 μM Fluo-3 AM ester (Molecular Probes Inc., Eugene, Oreg.) in a loading buffer (1×HBSS buffer, pH 7.4, containing 20 mM HEPES, 0.1% BSA, and 2.5 mM probenecid) for 1 hour at 37° C. Cells were then washed four times with the loading buffer and exposed in the FLIPR™ to sets of compounds. HEK293T cells were loaded with 2 μM Fluo-4 AM ester (Molecular Probes Inc., Eugene, Oreg.) in the same loading buffer without probenecid for 30 minutes and washed four times before being exposed to compounds in the FLIPR™. […]
The same activity was determined with human LPA1 using a recombinant baculovirus-infected insect Sf9 cell membrane preparation.

pEC50: −log10 of the molar value. “Also recorded” adds a separate entry of the source.

Sequence of LPA1 (P61793 whole entry): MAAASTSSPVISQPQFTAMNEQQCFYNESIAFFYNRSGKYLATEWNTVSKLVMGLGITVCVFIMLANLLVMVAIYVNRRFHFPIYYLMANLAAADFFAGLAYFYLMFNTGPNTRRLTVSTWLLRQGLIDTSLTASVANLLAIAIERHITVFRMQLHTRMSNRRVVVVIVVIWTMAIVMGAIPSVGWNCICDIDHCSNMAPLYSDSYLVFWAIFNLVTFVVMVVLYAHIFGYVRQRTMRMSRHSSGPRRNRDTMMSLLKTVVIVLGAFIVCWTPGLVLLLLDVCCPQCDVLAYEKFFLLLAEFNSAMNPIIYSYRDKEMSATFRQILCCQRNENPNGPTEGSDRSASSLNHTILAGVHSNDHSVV
Sequence of LPA2 (Q9HBW0 whole entry): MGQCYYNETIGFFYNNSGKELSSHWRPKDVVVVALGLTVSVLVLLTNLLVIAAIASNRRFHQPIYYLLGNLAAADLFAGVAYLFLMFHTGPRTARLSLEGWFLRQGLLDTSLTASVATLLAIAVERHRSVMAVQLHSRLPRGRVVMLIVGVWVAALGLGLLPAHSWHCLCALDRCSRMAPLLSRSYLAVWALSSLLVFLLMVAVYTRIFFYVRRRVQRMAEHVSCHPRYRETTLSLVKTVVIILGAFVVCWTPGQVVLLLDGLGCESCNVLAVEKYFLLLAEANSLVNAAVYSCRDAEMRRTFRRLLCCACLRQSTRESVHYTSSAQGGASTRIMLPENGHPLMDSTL

By pEC50 is commonly meant the EC50 on a negative log10 scale, so that one unit is a factor of ten. Consider “1-acyl, 2-hydroxyl-sn-glycerol-3-phosphate [LPA, reference compound]”, for which the negative-log EC50 (pEC50) was 8.17 at LPA2 and 6.58 on LPA3. The “LPA3 Emax” value at LPA3 (LPA = 100) is 100.
In general, Emax refers to the maximal effect, on the per cent scale that the assay sets. On to `CCCCCCCC/C=C\CCCCCCCC(=O)N[C@@H](CN)COP(=O)(O)O` [VPC12048], for which the values for the Emax on LPA2, at LPA1 and at LPA3 were 36.4%, 9.4% and 3.8%, respectively. Moreover, the pEC50 on LPA2, on LPA1 and on LPA3 was < 5.30 in each case.
`CCCCCCCC/C=C\CCCCCCCC(=O)N[C@@H](COP(=O)(O)O)Cc1ccccc1` [VPC12084]: on LPA2, the Emax was 97% and the pEC50 was 6.57. The “Agonist activity in whole cell assays” value in the experiment with LPA receptors is reported as “appreciable agonist activity”. Further, on LPA1, the “Antagonism of LPA-induced GTP[γ35S] binding at LPA1” value is recorded as “did block LPA activity”, the Emax was 23.7% and the pEC50 is 7.42. For the same compound, on LPA3, the Emax came to 78.7% and the pEC50 was 6.45.
For `CCCCCCCC/C=C\CCCCCCCC(=O)N[C@H](C)COP(=O)(O)O` [VPC12086], at LPA2, the Emax stood at 95.2% and the pEC50 was 7.74. For the same compound, at LPA1, the Emax was 108%; the negative-log EC50 (pEC50) was 8.47; the “Potency at LPA1 relative to LPA” value is “more potent than 1-oleoyl LPA; also recorded: more potent and efficacious than LPA”. At LPA3, the Emax is 93.4% and the pEC50 is 6.95.
In the case of `CCCCCCCC/C=C\CCCCCCCC(=O)N[C@@H](COP(=O)(O)O)C(C)C` [VPC12098], the Emax at LPA2 amounted to 85.8%; on LPA1, 51%; at LPA3, 45.3%. For the same compound, the pEC50 is 6.10 on LPA2, 7.13 on LPA1 and 5.42 on LPA3.
Take `CCCCCCCC/C=C\CCCCCCCC(=O)N[C@@H](C)COP(=O)(O)O` [VPC12101]: the Emax at LPA2 came out at 6.9%; on LPA1, 48.1%; on LPA3, 9.7%. Further, the pEC50 on LPA2 was < 5.30; at LPA1, 5.54; at LPA3, < 5.30.
In the case of `CCCCCCCC/C=C\CCCCCCCC(=O)N[C@H](CC)COP(=O)(O)O` [VPC12109], the Emax was found to be 92.6% on LPA2, 66.8% at LPA1 and 83.5% on LPA3. For the same compound, the pEC50 on LPA2 was 6.79; at LPA1, 7.45; at LPA3 it was 5.97.
`CCCCCCCC/C=C\CCCCCCCC(=O)N[C@@H](CC)COP(=O)(O)O` [VPC12115]: the Emax on LPA2 was 85.6%; on LPA1, 62.3%; at LPA3, 89.3%. In addition, the pEC50 on LPA2 is 5.37; on LPA1 it was 5.80; at LPA3, 5.30.
With `CCCCCCCC/C=C\CCCCCCCC(=O)N[C@H](CN)COP(=O)(O)O` [VPC12178], on LPA2, the maximal effect (Emax) is 103% and the pEC50 was 7.30. Also, at LPA1, the Emax was 98.7%, the pEC50 is 8.31 and the “Potency at LPA1 relative to LPA” value was “more potent than 1-oleoyl LPA”. Moreover, on LPA3, the Emax came out at 103% and the pEC50 was 6.17.
For the compound `CCCCCCCC/C=C\CCCCCCCC(=O)N[C@H](COP(=O)(O)O)Cc1ccccc1` [VPC12255], the pEC50 on LPA2, at LPA1 and on LPA3 was < 5.30 each time.
With `CCCCCCCC/C=C\CCCCCCCC(=O)N[C@@H](COP(=O)(O)O)C(=O)OC` [VPC31139], the Emax at LPA2 worked out at 91.3%; on LPA1 it was 66.2%; on LPA3, 84.4%. For the same compound, the pEC50 on LPA2 is 7.53; on LPA1, 7.73; at LPA3, 5.83.
On to `CCCCCCCC/C=C\CCCCCCCC(=O)N[C@H](CO)COP(=O)(O)O` [VPC31143], for which, at LPA2, the Emax was determined as 105% and the pEC50 is 6.93. Moreover, at LPA1, the Emax worked out at 161%, the pEC50 was 8.10 and the “Potency at LPA1 relative to LPA” value is listed as “more potent than 1-oleoyl LPA”. For the same compound, at LPA3, the Emax was 107% and the negative-log EC50 (pEC50) was 6.49.
`CCCCCCCC/C=C\CCCCCCCC(=O)N[C@@H](CO)COP(=O)(O)O` [VPC31144]: the Emax on LPA2 turned out to be 77.3%; on LPA1, 91.1%. Also, the pEC50 at LPA2 was 5.58; at LPA1 it was < 5.30; at LPA3, 5.36.
As for `CCCCCCCC/C=C\CCCCCCCC(=O)N[C@@H](COP(=O)(O)O)Cc1ccc(OCc2ccc(CCCCC)cc2)cc1` [VPC31162], at LPA2, the “Antagonism of LPA-induced GTP[γ35S] binding at LPA2” value was “antagonist activity”. Further, the “Agonist activity/efficacy at LPA1” value on LPA1 (compared to LPA) is recorded as “agonist”. Further, the “Agonist activity/efficacy at LPA3” value at LPA3 (compared to LPA) was “agonist”.
With `CCCCCCCC/C=C\CCCCCCCC(=O)N[C@H](COP(=O)(O)O)C(=O)OC` [VPC31180], the values for the Emax at LPA2, at LPA1 and at LPA3 were 60.2%, 50.6% and 3.8%, respectively. For the same compound, the pEC50 was 5.46 on LPA2, 5.92 on LPA1 and < 5.30 on LPA3.
With `CCCCCCCC/C=C\CCCCCCCC(=O)N[C@H](COP(=O)(O)O)C(C)C` [compound 40105], the figures for the Emax at LPA2, on LPA1 and at LPA3 were 27.6%, 14.8% and 27.7%, respectively. For the same compound, the pEC50 on LPA2, on LPA1 and at LPA3 was < 5.30 throughout.
